Results as given in patent publication US7230143B2, “Chromatographic method for the analysis of both in process and finished sevoflurane” (Halocarbon Products Corporation, priority 2004, dated 2007).

Test: Partition of sevoflurane and HFIP in solvent/HF system
Assay type: physicochemical
Settings: equal volumes, 25 C, fraction of original compound found in the solvent, by gas chromatography; for Partition Coefficients of Sevoflurane and HFIP in solvent/HF system: 1,2,3-trichloropropane: solvent 1,2,3-trichloropropane / HF; for Partition Coefficients of Sevoflurane and HFIP in solvent/HF system: HC-0.8 oil: solvent HC-0.8 oil (mixture of tetrachlorobutanes) / HF; for Partition Coefficients of Sevoflurane and HFIP in solvent/HF system: Krytox: solvent Krytox (1:1 mixture of DuPont Krytox GLP 100 and K6) / HF
Procedure: The partitions of sevoflurane and of HFIP in solvent/HF system were measured by mixing a small amount of either sevoflurane or HFIP with a two-layer mixture of equal volumes of a particular solvent and HF at 25 C. After enough mixing to reach equilibrium, the fraction of original compound found in the solvent was determined by gas chromatography and quantified using standards.

Structure (SMILES)	Partition Coefficients of Sevoflurane and HFIP in solvent/HF system: 1,2,3-trichloropropane	Partition Coefficients of Sevoflurane and HFIP in solvent/HF system: HC-0.8 oil	Partition Coefficients of Sevoflurane and HFIP in solvent/HF system: Krytox	Partition Coefficients of Sevoflurane and HFIP in solvent/HF system: Isooctane	Partition Coefficients of Sevoflurane and HFIP in solvent/HF system: Perfluoromethyldecalin
OC(C(F)(F)F)C(F)(F)F [HFIP, 1,1,1,3,3,3-hexafluoro-2-propanol]	<0.005	0.01	<0.005	<0.005	<0.005
FCOC(C(F)(F)F)C(F)(F)F [Sevoflurane, fluoromethyl 2,2,2-trifluoro-1-(trifluoromethyl)ethyl ether]	0.45	1.00	0.32	0.30	0.22
